Our source for the IC50 values is ChEMBL document CHEMBL5506003, “Design and biological evaluation of dual tubulin/HDAC inhibitors based on millepachine for treatment of prostate cancer” (Eur J Med Chem, 2024).

For test [1], the system named is MCF7. Description: Cytotoxicity against human MCF7 cells incubated for 72 hrs by MTT assay. Particulars: MCF7, 72 h.
The test system of test [2] is A549. The test is described as follows: Cytotoxicity against human A549 cells incubated for 72 hrs by MTT assay. Conditions: A549, 72 h. Background: Tetrazolium dyes change colour on reduction, which living cells bring about.
Test [3] concerns MDA-MB-231. Description: Cytotoxicity against human MDA-MB-231 cells incubated for 72 hrs by MTT assay. Conditions: MDA-MB-231, 72 h. It is filed as functional, cell-based.
Test [4] concerns PC-3. The test is described as follows: Cytotoxicity against human PC-3 cells incubated for 72 hrs by MTT assay. Particulars: PC-3, 72 h.
The subject of test [5] is U-251. Description: Cytotoxicity against human U-251 cells incubated for 72 hrs by MTT assay. Conditions: U-251, 72 h.

By IC50 is commonly meant the concentration needed to halve the response being measured. As for `COc1ccc(/C=C/C(=O)c2ccc(OC)c3c2OC(C)(C)C=C3)cc1OCCCCCC(=O)NO`, the 50% inhibitory concentration (IC50) in test [1] is 6.53 µM; in test [2], 6.08 µM; in test [3], above 10 µM; in test [4] it was 5.74 µM; in test [5], above 10 µM.
Consider `COc1ccc(/C=C/C(=O)c2ccc(OC)c3c2OC(C)(C)C=C3)cc1OCC(=O)NO`, for which the IC50 came to 0.59 µM in test [1]; 2.93 µM in test [2]; 1.71 µM in test [3]; 0.23 µM in test [4]; 0.48 µM in test [5].
For `COc1ccc(/C=C/C(=O)c2ccc(OC)c3c2OC(C)(C)C=C3)cc1OCCCCC(=O)Nc1ccccc1N`, in that order: 8.49 µM, above 10 µM, above 10 µM, 6.44 µM and above 10 µM.
Taken in the same sequence, the figures for `COc1ccc(/C=C/C(=O)c2ccc(OC)c3c2OC(C)(C)C=C3)cc1OCCCC(=O)Nc1ccccc1N` were 9.47 µM, above 10 µM, above 10 µM, above 10 µM and 7.52 µM.
For `COc1ccc(/C=C/C(=O)c2ccc(OC)c3c2OC(C)(C)C=C3)cc1OCCCCCC(=O)Nc1ccccc1N`, the IC50 in test [1] is above 10 µM; in test [2], above 10 µM; in test [3], above 10 µM; in test [4], 5.86 µM; in test [5], above 10 µM.
For `COc1ccc(/C=C/C(=O)c2ccc(OC)c3c2OC(C)(C)C=C3)cc1NCC(=O)Nc1ccccc1N`, the IC50 in test [1] is 4.33 µM; in test [2] it was 9.78 µM; in test [3] it was 4.97 µM; in test [4], 3.1 µM; in test [5] it was 4.19 µM.
For `COc1ccc(/C=C/C(=O)c2ccc(OC)c3c2OC(C)(C)C=C3)cc1OCCCCCCC(=O)Nc1ccccc1N`, in that order: above 10 µM, above 10 µM, 3.89 µM, above 10 µM and above 10 µM.
Turning to `COc1ccc(/C=C/C(=O)c2ccc(OC)c3c2OC(C)(C)C=C3)cc1NCCCCCC(=O)Nc1ccccc1N`, the IC50 in test [1] is above 10 µM; in test [2], above 10 µM; in test [3], above 10 µM; in test [4], 5.16 µM; in test [5], above 10 µM.
On to `COc1ccc(/C=C/C(=O)c2ccc(OC)c3c2OC(C)(C)C=C3)cc1NCCCCCCC(=O)NO`, for which the IC50 in test [1] was above 10 µM; in test [2], above 10 µM; in test [3] it was above 10 µM; in test [4], 7.23 µM; in test [5], above 10 µM.
`COc1ccc(/C=C/C(=O)c2ccc(OC)c3c2OC(C)(C)C=C3)cc1OCCCCC(=O)NO`: the IC50 was above 10 µM in test [1]; 7.13 µM in test [2]; 4.69 µM in test [3]; 4.84 µM in test [4]; above 10 µM in test [5].
Regarding `COc1ccc(/C=C/C(=O)c2ccc(Br)c3c2OC(C)(C)C=C3)cc1OCC(=O)Nc1ccccc1N`, the IC50 in test [1] is 6.11 µM; in test [2], 8.2 µM; in test [3], 4.75 µM; in test [4], 3.75 µM; in test [5] it was 6.68 µM.
For `COc1ccc(/C=C/C(=O)c2ccc(Cl)c3c2OC(C)(C)C=C3)cc1OCC(=O)Nc1ccccc1N`, the 50% inhibitory concentration (IC50) came to 9.14 µM in test [1]; 7.72 µM in test [2]; 3.45 µM in test [3]; 4.69 µM in test [4]; 9.23 µM in test [5].
Taken in the same sequence, the figures for `COc1ccc(/C=C/C(=O)c2ccc(Cl)c3c2OC(C)(C)C=C3)cc1NCC(=O)Nc1ccccc1N` were 4.77 µM, above 10 µM, 3 µM, 2.65 µM and 4.72 µM.
Turning to `COc1ccc(/C=C/C(=O)c2ccc(OC)c3c2OC(C)(C)C=C3)cc1OCC(=O)Nc1ccccc1N`, the IC50 was 8.72 µM in test [1]; above 10 µM in test [2]; above 10 µM in test [3]; above 10 µM in test [4]; 7.6 µM in test [5].
For `COc1ccc(/C=C/C(=O)c2ccc(OC)c3c2OC(C)(C)C=C3)cc1OCCCC(=O)NO`, the half-maximal inhibitory concentration (IC50) stood at 5.68 µM in test [1]; 5.53 µM in test [2]; 8.71 µM in test [3]; 6.15 µM in test [4]; 3.68 µM in test [5].
Taken in the same sequence, the figures for `COc1ccc(/C=C/C(=O)c2ccc(Cl)c3c2OC(C)(C)C=C3)cc1OCC(=O)NO` were 1.45 µM, 2.56 µM, 0.5 µM, 0.22 µM and 1.76 µM.
Taken in the same sequence, the figures for `COc1ccc(/C=C/C(=O)c2ccc(Cl)c3c2OC(C)(C)C=C3)cc1NCC(=O)NO` were 0.48 µM, 1.67 µM, 0.5 µM, 0.052 µM and 0.25 µM.
Taken in the same sequence, the figures for `COc1ccc(/C=C/C(=O)c2ccc(OC)c3c2OC(C)(C)C=C3)cc1` [MILLEPACHINE] were 4.37 µM, above 10 µM, 2.47 µM, 1.13 µM and 3.72 µM.
Regarding `COc1ccc(/C=C/C(=O)c2ccc(OC)c3c2OC(C)(C)C=C3)cc1NCCCCCC(=O)NO`, the IC50 in test [1], in test [2], in test [3], in test [4] and in test [5] was above 10 µM throughout.
As to `COc1ccc(/C=C/C(=O)c2ccc(OC)c3c2OC(C)(C)C=C3)cc1NCCCCCCC(=O)Nc1ccccc1N`, the IC50 in test [1] was above 10 µM; in test [2], above 10 µM; in test [3], above 10 µM; in test [4], 6.61 µM; in test [5] it was above 10 µM.
In the case of `COc1ccc(/C=C/C(=O)c2ccc(Br)c3c2OC(C)(C)C=C3)cc1NCC(=O)Nc1ccccc1N`, the IC50 was 4.06 µM in test [1]; above 10 µM in test [2]; 4.05 µM in test [3]; 1.23 µM in test [4]; 3.66 µM in test [5].
Consider `COc1ccc(/C=C/C(=O)c2ccc(OC)c3c2OC(C)(C)C=C3)cc1OCCCCCCC(=O)NO`, for which the IC50 in test [1] was 10 µM; in test [2], above 10 µM; in test [3], above 10 µM; in test [4], above 10 µM; in test [5] it was above 10 µM.
